Reference: PubChem BioAssay (NCI)
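Grown in 96-well plates, cells were treated for 48 hours with each compound at five concentrations. Insufficient inhibition: endpoint recorded as highest concentration tested. TGI marks complete inhibition of growth.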

How the values were obtained:
Assay in all cases: growth of human tumour cells (NCI), 48 h
[1] = system: SK-MEL-5 melanoma
[2] = system: DLD-1 colon
[3] = system: COLO 205 colon
[4] = system: CCRF-CEM leukemia
[5] = system: A549 NSCLC
[6] = system: OVCAR-8 ovarian
[7] = system: SF-539 CNS
[8] = system: LOX IMVI melanoma
[9] = system: K-562 leukemia
[10] = system: NCI-H23 lung
[11] = system: SNB-78 CNS
[12] = system: HCC-2998 colon
[13] = system: MALME-3M melanoma
[14] = system: DMS 114 small cell lung
[15] = system: DMS 273 small cell lung
[16] = system: ACHN renal
[17] = system: TK-10 renal
[18] = system: SW-620 colon
[19] = system: XF 498 CNS
[20] = system: 786-0 renal
[21] = system: M19-MEL melanoma
[22] = system: HCT-15 colon
[23] = system: HOP-62 NSCLC
[24] = system: UACC-62 melanoma
[25] = system: M14 melanoma
[26] = system: HL-60(TB) leukemia
[27] = system: MOLT-4 leukemia
[28] = system: SNB-75 CNS
[29] = system: IGROV1 ovarian
[30] = system: UACC-257 melanoma
[31] = system: SK-OV-3 ovarian
[32] = system: SF-268 CNS
[33] = system: SN12C renal
[34] = system: EKVX NSCLC
[35] = system: RXF 393 renal
[36] = system: OVCAR-5 ovarian
[37] = system: LXFL 529 NSCLC
[38] = system: SNB-19 CNS
[39] = system: NCI-H522 lung
[40] = system: CAKI-1 renal
[41] = system: UO-31 renal
[42] = system: HOP-92 NSCLC
[43] = system: OVCAR-4 ovarian
[44] = system: KM20L2 colon
[45] = system: NCI-H460 lung
[46] = system: KM12 colon
[47] = system: SF-295 CNS
[48] = system: SK-MEL-28 melanoma
[49] = system: SK-MEL-2 melanoma
[50] = system: OVCAR-3 ovarian
[51] = system: SR leukemia
[52] = system: NCI-H226 lung
[53] = system: RXF-631 renal
[54] = system: U251 CNS
[55] = system: A498 renal
[56] = system: RPMI-8226 leukemia
[57] = system: HCT-116 colon
[58] = system: HT29 colon
[59] = system: HOP-18 NSCLC

`O=C(CSc1ncn[nH]1)C[P+](c1ccccc1)(c1ccccc1)c1ccccc1` was tested, and the TGI [1] was over 100 µM, the TGI [2] was over 100 µM and the TGI [3] was over 100 µM. It also gave a TGI [4] of over 100 µM, a TGI [5] of over 100 µM and a TGI [6] of over 100 µM. It also gave a TGI [7] of over 100 µM, a TGI [8] of over 100 µM and a TGI [9] of over 100 µM. It also gave a TGI [10] of over 100 µM, a TGI [11] of over 100 µM and a TGI [12] of over 100 µM. For the same molecule, the TGI [13] was over 100 µM, the TGI [14] was over 100 µM and the TGI [15] was over 100 µM. For the same molecule, the TGI [16] was over 100 µM, the TGI [17] was over 100 µM and the TGI [18] was over 100 µM. It also gave a TGI [19] of over 100 µM, a TGI [20] of over 100 µM and a TGI [21] of over 100 µM. The TGI [22] was over 100 µM, the TGI [23] was over 100 µM and the TGI [24] was over 100 µM. The TGI [25] was over 100 µM, the TGI [26] was over 100 µM and the TGI [27] was over 100 µM. It also gave a TGI [28] of over 100 µM, a TGI [29] of over 100 µM and a TGI [30] of over 100 µM. The TGI [31] was over 100 µM, the TGI [32] was over 100 µM and the TGI [33] was over 100 µM. It also gave a TGI [34] of over 100 µM, a TGI [35] of over 100 µM and a TGI [36] of over 100 µM. For the same molecule, the TGI [37] was over 100 µM, the TGI [38] was over 100 µM and the TGI [39] was 43.2 µM. The TGI [40] was over 100 µM, the TGI [41] was over 100 µM and the TGI [42] was over 100 µM. The TGI [43] was over 100 µM, the TGI [44] was over 100 µM and the TGI [45] was over 100 µM. The TGI [46] was over 100 µM, the TGI [47] was over 100 µM and the TGI [48] was over 100 µM. The TGI [49] was over 100 µM and the TGI [50] was over 100 µM.

Work on `O=c1cc(-c2c[nH]c3ccccc23)[nH]c2cc3c(cc12)OCO3` yielded a TGI [1] of over 100 µM, a TGI [2] of over 100 µM and a TGI [3] of over 100 µM. It also gave a TGI [4] of over 100 µM, a TGI [5] of over 100 µM and a TGI [7] of over 100 µM. It also gave a TGI [8] of over 100 µM, a TGI [9] of over 100 µM and a TGI [10] of over 100 µM. The TGI [12] was over 100 µM, the TGI [13] was over 100 µM and the TGI [51] was over 100 µM. For the same molecule, the TGI [14] was over 100 µM, the TGI [15] was over 100 µM and the TGI [16] was over 100 µM. The TGI [17] was over 100 µM, the TGI [18] was over 100 µM and the TGI [19] was over 100 µM. For the same molecule, the TGI [20] was over 100 µM, the TGI [21] was over 100 µM and the TGI [22] was over 100 µM. For the same molecule, the TGI [23] was over 100 µM, the TGI [24] was over 100 µM and the TGI [25] was over 100 µM. It also gave a TGI [26] of over 100 µM, a TGI [52] of over 100 µM and a TGI [27] of over 100 µM. The TGI [28] was 72.6 µM, the TGI [29] was over 100 µM and the TGI [30] was over 100 µM. It also gave a TGI [32] of over 100 µM, a TGI [53] of over 100 µM and a TGI [33] of over 100 µM. It also gave a TGI [34] of over 100 µM, a TGI [35] of over 100 µM and a TGI [37] of over 100 µM. The TGI [38] was over 100 µM, the TGI [54] was over 100 µM and the TGI [41] was over 100 µM. It also gave a TGI [55] of over 100 µM, a TGI [43] of over 100 µM and a TGI [56] of over 100 µM. For the same molecule, the TGI [44] was over 100 µM, the TGI [45] was over 100 µM and the TGI [57] was over 100 µM. For the same molecule, the TGI [47] was over 100 µM, the TGI [48] was over 100 µM and the TGI [49] was over 100 µM. It also gave a TGI [58] of over 100 µM and a TGI [50] of over 100 µM.

`O=C1c2ccccc2C(=O)c2c(O)c(NCCCNCCO)cc(O)c21` gave a TGI [2] of 19.8 µM, a TGI [3] of 20.8 µM and a TGI [4] of 15.5 µM. For the same molecule, the TGI [5] was 23.7 µM, the TGI [6] was 23.7 µM and the TGI [7] was 22.2 µM. For the same molecule, the TGI [9] was 3.5 µM, the TGI [10] was 24.6 µM and the TGI [11] was 39.8 µM. For the same molecule, the TGI [12] was 17 µM, the TGI [13] was 31.2 µM and the TGI [14] was 26.2 µM. The TGI [15] was 22.7 µM, the TGI [16] was 15.9 µM and the TGI [17] was 22.1 µM. The TGI [18] was 18.4 µM, the TGI [19] was 32.7 µM and the TGI [20] was 23 µM. For the same molecule, the TGI [21] was 27.4 µM, the TGI [22] was 24.6 µM and the TGI [23] was 15.4 µM. For the same molecule, the TGI [24] was 36.5 µM, the TGI [25] was 36.6 µM and the TGI [26] was 19.7 µM. It also gave a TGI [52] of 22 µM, a TGI [27] of 14 µM and a TGI [28] of 26.8 µM. It also gave a TGI [29] of 28.8 µM, a TGI [59] of 17.5 µM and a TGI [31] of 26.1 µM. The TGI [32] was 23.1 µM, the TGI [53] was 25 µM and the TGI [33] was 25.8 µM. The TGI [34] was 28.3 µM, the TGI [36] was 24.6 µM and the TGI [37] was 29.8 µM. For the same molecule, the TGI [54] was 21.1 µM, the TGI [40] was 22.4 µM and the TGI [41] was 19.5 µM. For the same molecule, the TGI [55] was 33.1 µM, the TGI [42] was 31.7 µM and the TGI [43] was 36.4 µM. For the same molecule, the TGI [56] was 25.5 µM, the TGI [45] was 17.8 µM and the TGI [46] was 21 µM. It also gave a TGI [47] of 23.1 µM, a TGI [48] of 30.4 µM and a TGI [49] of 33 µM. The TGI [58] was 18.7 µM and the TGI [50] was 26.6 µM.

`C[N+](C)(C)CC1CCC/C1=N/O` (configuration not stated) gave a TGI [1] of over 100 µM, a TGI [2] of over 100 µM and a TGI [3] of 38.7 µM. For the same molecule, the TGI [4] was 39.1 µM, the TGI [5] was over 100 µM and the TGI [6] was 4.34 µM. For the same molecule, the TGI [7] was over 100 µM, the TGI [8] was 38.4 µM and the TGI [9] was 44.6 µM. For the same molecule, the TGI [10] was over 100 µM, the TGI [11] was over 100 µM and the TGI [12] was over 100 µM. The TGI [13] was over 100 µM, the TGI [51] was 54.2 µM and the TGI [14] was 39 µM. For the same molecule, the TGI [15] was over 100 µM, the TGI [16] was over 100 µM and the TGI [17] was over 100 µM. For the same molecule, the TGI [18] was 19.5 µM, the TGI [19] was 3.1 µM and the TGI [20] was 44.5 µM. It also gave a TGI [21] of over 100 µM, a TGI [22] of 38.8 µM and a TGI [23] of over 100 µM. For the same molecule, the TGI [24] was over 100 µM, the TGI [25] was over 100 µM and the TGI [26] was 35.3 µM. The TGI [52] was over 100 µM, the TGI [27] was over 100 µM and the TGI [28] was over 100 µM. For the same molecule, the TGI [29] was over 100 µM, the TGI [59] was over 100 µM and the TGI [30] was over 100 µM. The TGI [31] was over 100 µM, the TGI [32] was over 100 µM and the TGI [33] was over 100 µM. For the same molecule, the TGI [34] was over 100 µM, the TGI [35] was over 100 µM and the TGI [36] was over 100 µM. It also gave a TGI [37] of over 100 µM, a TGI [38] of over 100 µM and a TGI [54] of over 100 µM. The TGI [39] was over 100 µM, the TGI [41] was over 100 µM and the TGI [55] was over 100 µM. The TGI [42] was over 100 µM, the TGI [43] was over 100 µM and the TGI [56] was 47 µM. The TGI [44] was 49.4 µM, the TGI [45] was over 100 µM and the TGI [46] was over 100 µM. For the same molecule, the TGI [57] was 46 µM, the TGI [47] was over 100 µM and the TGI [48] was over 100 µM. The TGI [49] was over 100 µM, the TGI [58] was over 100 µM and the TGI [50] was over 100 µM.
